Counter-ions that a name gives are not always drawn.
What was measured:
Assay type in all cases: in vitro ADME
[1] = Franz-type diffusion of hydrocortisone through human epidermis, Dermaportation vs passive; conditions: for flux (skin penetration): saturated solution in 20:80 ethanol:PBS pH 7.4; for cumulative amount penetrated: at 30 min
Method: (§1) Human skin was obtained following abdominoplasty surgery under existing approval from the Human Research Ethics Committee of Curtin University.
The epidermis was heat separated from the dermis using standard procedures (Kligman and Christophers 1963). The epidermis was mounted in Franz-type diffusion cells with the stratum corneum facing the donor compartment. Skin integrity was determined by conductance measurement. The receptor compartment was filled with 20:80 ethanol:phosphate buffered saline pH 7.4, stirred continuously and maintained at 37° C. throughout the experiment. Hydrocortisone solution (1 mL of saturated solution in 20:80 ethanol:phosphate buffered saline pH 7.4; solubility approx 1 mg/mL) was applied to the donor side of the epidermis.
Dermaportation was applied from time 0 to 4 h. Samples were removed from the receptor fluid at time points up to 4 h. At each time point the receptor fluid volume was replaced with fresh receptor solution preheated to 37° C. Four Dermaportation cells and three passive cells (no Dermaportation) were conducted using skin from the abdominal region of a donor. The content of hydrocortisone in receptor fluid samples was analysed by HPLC with ultraviolet detection using a validated assay procedure.
The cumulative amount of hydrocortisone in receptor versus time was plotted and flux values calculated from the slopes per group.

[2] = Franz-type diffusion of naltrexone through human epidermis, Dermaportation vs passive; conditions: for flux0-2h (skin penetration): 0.5% w/v in PBS pH 7.4
Method: as §1
The epidermis was heat separated from the dermis using standard procedures (Kligman and Christophers 1963). The epidermis was mounted in Franz-type diffusion cells with the stratum corneum facing the donor compartment. Skin integrity was determined by conductance measurement. The receptor compartment was filled with phosphate buffered saline pH 7.4, stirred continuously and maintained at 37° C. throughout the experiment. Naltrexone (0.5% w/v) in phosphate buffered saline (pH 7.4) was applied to the donor side of the epidermis.
Dermaportation was applied from time 0 to 4 h. Samples were removed from the receptor fluid at time points up to 8 h. At each time point the receptor fluid volume was replaced with fresh receptor solution preheated to 37° C. Four Dermaportation cells and 4 passive cells (no Dermaportation) were conducted using skin from the abdominal region of a donor. The content of naltrexone in receptor fluid samples was analysed by HPLC with ultraviolet detection using a validated assay procedure.
The cumulative amount of naltrexone in receptor versus time was plotted and flux values calculated from the slopes per group.

[3] = Franz-type diffusion of 5-aminolevulinic acid through human epidermis; conditions: at 4 h; 2% w/v solution in PBS pH 7.4; with Dermaportation only (0-4 h)
Method: Overview: ALA solution was applied to the surface of human epidermis for a contact period of up to 4 h. Dermaportation applied continuously from 0 to 4 h was compared to passive diffusion. ALA penetrating the epidermis would diffuse into a receptor fluid of phosphate buffered saline (pH 7.4: PBS). The receptor fluid was analysed for ALA content by high performance liquid chromatography (HPLC).
In vitro epidermal penetration: Human skin was obtained following abdominoplasty surgery under existing approval from the Human Research Ethics Committee of Curtin University. Skin from a donor was used in this study. The epidermis was heat separated from the dermis using standard procedures (Kligman and Christophers 1963). The epidermis was mounted in Franz-type diffusion cells with the stratum corneum facing the donor compartment. Skin integrity was determined by conductance measurement.
The receptor compartment was filled with phosphate buffered saline pH 7.4, stirred continuously and maintained at 37° C. throughout the experiment. ALA solution (2% w/v of ALA in phosphate buffered saline pH 7.4) was applied to the donor side of the epidermis. Dermaportation (cycle 2) was applied from time 0 to 4 h. […] The content of ALA in receptor fluid samples was analysed by HPLC with ultraviolet detection using a validated assay procedure. […]

[4] = Franz-type diffusion of Voltaren Emulgel diclofenac through human epidermis, Dermaportation vs passive; conditions: for flux (skin penetration): PBS receptor, 37° C.; for cumulative amount penetrated: at 8 h
Method: Human epidermis was mounted in vertical Franz type diffusion cells (stratum corneum facing up), according to the method of Kligman and Christophers (1963). Voltaren Emulgel® (1 g containing 1.16% diclofenac diethylammonium salt; Novartis) was applied to the donor compartment of diffusion cells, with PBS in the receptor compartment (3.0 mL; stirred continuously; 37° C.). Dermaportation coils were placed around the exterior of 4 cells, with 4 additional cells without coils (passive control). Dermaportation energy was applied from time 30-60 min. Samples of the receptor solution were removed and replaced with fresh buffer over an 8 h period. All samples were analysed for diclofenac content by HPLC with UV detection by a validated method. The cumulative amount of diclofenac in receptor versus time was plotted and flux values calculated from the slopes per group. Statistical analyses used a t-test on the delta scores from the zero time point to the time point in question.

C[C@]12CCC(=O)C=C1CC[C@@H]1[C@@H]2[C@@H](O)C[C@@]2(C)[C@H]1CC[C@]2(O)C(=O)CO [hydrocortisone, Hydrocortisone]
flux (skin penetration) ([1]; Dermaportation 0-4 h): 2.44 μg/cm^2/h
cumulative amount penetrated ([1]; Dermaportation): 93.22 µg
cumulative amount penetrated ([1]; passive diffusion): 2.51 µg
flux (skin penetration) ([1]; passive administration): 0.08 μg/cm^2/h

O=C1CC[C@@]2(O)[C@H]3Cc4ccc(O)c5c4[C@@]2(CCN3CC2CC2)[C@H]1O5 [naltrexone, Naltrexone]
flux0-2h (skin penetration) ([2]; Dermaportation 0-4 h): 152.6 μg/cm^2/h
diffusion with Dermaportation compared with passive administration ([2]; Dermaportation for 240 min, Time by Treat interaction p<0.05): diffused faster and in more quantity
flux0-2h (skin penetration) ([2]; passive administration): 1.6 μg/cm^2/h

NCC(=O)CCC(=O)O [ALA, 5-aminolevulinic acid]
applied dose penetrated to the receptor [3]: approximately 40%

O=C(O)Cc1ccccc1Nc1c(Cl)cccc1Cl [diclofenac, diclofenac diethylammonium salt]
flux (skin penetration) ([4]; Dermaportation applied 30-60 min, Voltaren Emulgel 1 g (1.16% diclofenac diethylammonium salt)): 2.97 µg/h
cumulative amount penetrated ([4]; Dermaportation applied 30-60 min): 14.25 µg
cumulative amount penetrated ([4]; passive diffusion): 7.59 µg
flux (skin penetration) ([4]; passive administration, Voltaren Emulgel 1 g): 1.58 µg/h
diffusion level versus zero time point (t-test delta score) ([4]; passive diffusion, any time point up to 8 h): did not reach diffusion levels different from 0

— patent US20120130150A1, “APPARATUS AND METHOD OF TREATMENT UTILIZING A VARYING ELECTROMAGNETIC ENERGIZATION PROFILE” (International Scientific Pty Ltd., priority 2009, published 2012)
